Measured values: the supplement of paper PMC10627819

Key:
S. pneumoniae D39V [1] = test: fitness (endpoint OD595 vs no drug) (fraction); higher = more growth
Outline: (§1)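 Growth medium was TSB, LB Lennox or CY, and plates were kept at 37 °C. Inoculation was at OD595 0.01 in 384-well plates, at 30 µl per well or 55 µl for S. pneumoniae. OD595 was monitored every 30 min for 14 h and background-subtracted using the first reading. Fitness is the optical density on entering stationary phase divided by the robust mean of no-drug controls, with values capped at 1.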

B. subtilis 168 [2] = test: Bliss interaction score (quartile over a dose matrix) (fitness difference); higher = more antagonism (negative = synergy)
Outline: (§2)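 Fitness was derived from optical density at entry into stationary phase, divided by the robust mean of the no-drug wells on the same plate. That reading was taken as OD595, and the ratio was capped at 1. Single-drug fitness was inferred from the combination data. The Bliss score, observed fitness minus the expected product of single-drug fitness, was summarised as quartiles over technical, biological and donor/recipient replicates.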

S. aureus DSM 20231 = test: as above
Outline: as §2

S. aureus Newman = test: as above
Outline: as §2

S. pneumoniae D39V [3] = test: as above
Outline: as §2

B. subtilis 168 [4] = test: fitness (endpoint OD595 vs no drug) (fraction); higher = more growth
Outline: as §1
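For Bliss interaction score (quartile over a dose matrix) in this document: first quartile when negative (synergy) and third quartile when positive (antagonism).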

CC(=O)NC[C@H]1CN(c2ccc(N3CCOCC3)c(F)c2)C(=O)O1 [Linezolid] + C/C(=C\C(=O)OCCCCCCCCC(=O)O)C[C@@H]1OC[C@H](C[C@@H]2O[C@H]2[C@@H](C)[C@H](C)O)[C@@H](O)[C@H]1O [Pseudomonic acid]
fitness, S. pneumoniae D39V [1]
Conditions	first compound 0.2 µg/mL	first compound 0.4 µg/mL	first compound 0.42 µg/mL	first compound 0.8 µg/mL
partner 0.03 µg/mL	0.862	0.731	0.275	0.411
partner 0.06 µg/mL	0.796	0.753	0.233	–
partner 0.12 µg/mL	0.626	0.611	0.183	0.427

Conditions	Bliss interaction score
B. subtilis 168 [2]	-0.0357
S. aureus DSM 20231	0.0202
S. aureus Newman	0.0446
S. pneumoniae D39V [3]	0.121

CC(=O)NC[C@H]1CN(c2ccc(N3CCOCC3)c(F)c2)C(=O)O1 [Linezolid] + CO[C@H]1/C=C/O[C@@]2(C)Oc3c(C)c(O)c4c(O)c(c(/C=N/N5CCN(C)CC5)c(O)c4c3C2=O)NC(=O)/C(C)=C\C=C\[C@H](C)[C@H](O)[C@@H](C)[C@@H](O)[C@@H](C)[C@H](OC(C)=O)[C@@H]1C [Rifampicin]
fitness, S. pneumoniae D39V [1]
Conditions	first compound 0.105 µg/mL	first compound 0.2 µg/mL	first compound 0.21 µg/mL	first compound 0.42 µg/mL	first compound 0.8 µg/mL
partner 0.05 µg/mL	–	0.69	0.182	0.171	0.348
partner 0.1 µg/mL	0.17	–	0.135	0.103	0.216
partner 0.2 µg/mL	0.127	–	0.0997	0.113	–

fitness, S. pneumoniae D39V [1], one replicate
Conditions	first compound 0.2 µg/mL	first compound 0.4 µg/mL	first compound 0.8 µg/mL
partner 0.025 µg/mL	0.809	0.685	0.298
partner 0.2 µg/mL	0	0	0

Conditions	Bliss interaction score
B. subtilis 168 [2]	-0.0404
S. aureus DSM 20231	-0.0505
S. aureus Newman	-0.0225
S. pneumoniae D39V [3]	-0.0681

CC(=O)NC[C@H]1CN(c2ccc(N3CCOCC3)c(F)c2)C(=O)O1 [Linezolid] + Clc1ccc(COC(Cn2ccnc2)c2ccc(Cl)cc2Cl)c(Cl)c1 [Miconazole]
fitness, S. pneumoniae D39V [1]
Conditions	first compound 0.105 µg/mL	first compound 0.2 µg/mL	first compound 0.21 µg/mL	first compound 0.4 µg/mL	first compound 0.42 µg/mL	first compound 0.8 µg/mL
partner 1.073 µg/mL	–	0.924	–	0.751	–	0.431
partner 1.25 µg/mL	0.835	–	0.653	–	0.566	–
partner 2.145 µg/mL	–	0.929	–	0.765	–	0.428
partner 2.5 µg/mL	0.807	–	0.691	–	0.524	–
partner 4.29 µg/mL	–	0.957	–	0.804	–	0.54
partner 5 µg/mL	0.842	–	0.74	–	0.502	–

Conditions	Bliss interaction score
B. subtilis 168 [2]	0.047
S. aureus DSM 20231	-0.0366
S. aureus Newman	-0.0524
S. pneumoniae D39V [3]	0.199

CC(=O)NC[C@H]1CN(c2ccc(N3CCOCC3)c(F)c2)C(=O)O1 [Linezolid] + O=C1CN(/N=C/c2ccc([N+](=O)[O-])o2)C(=O)N1 [Nitrofurantoin]
fitness, S. pneumoniae D39V [1]
Conditions	first compound 0.105 µg/mL	first compound 0.2 µg/mL	first compound 0.21 µg/mL	first compound 0.4 µg/mL	first compound 0.42 µg/mL	first compound 0.8 µg/mL
partner 1.285 µg/mL	–	0.79	–	0.695	–	0.291
partner 2 µg/mL	0.784	–	0.688	–	0.522	–
partner 2.57 µg/mL	–	0.791	–	0.683	–	0.259
partner 4 µg/mL	0.795	–	0.705	–	0.488	–
partner 8 µg/mL	0.618	–	0.346	–	0.151	–

S. pneumoniae D39V [1], partner 5.14 µg/mL, one replicate
Conditions	fitness
first compound 0.2 µg/mL	0.735
first compound 0.4 µg/mL	0.534
first compound 0.8 µg/mL	0.239

Conditions	Bliss interaction score
B. subtilis 168 [2]	-0.141
S. aureus DSM 20231	-0.0317
S. aureus Newman	-0.0829
S. pneumoniae D39V [3]	-0.147

CO[C@@H]1[C@@H](OC(N)=O)[C@@H](O)[C@H](Oc2ccc3c(O)c(NC(=O)c4ccc(O)c(CC=C(C)C)c4)c(=O)oc3c2C)OC1(C)C [Novobiocin] + CN[C@@H]1[C@H](O)[C@H](NC)[C@H]2O[C@@]3(O)C(=O)C[C@@H](C)O[C@H]3O[C@@H]2[C@H]1O [Spectinomycin]
fitness, B. subtilis 168 [4]
Conditions	first compound 0.0125 µg/mL	first compound 0.025 µg/mL	first compound 0.05 µg/mL
partner 2 µg/mL	0.949	0.929	0.971
partner 4 µg/mL	0.967	0.948	≥ 1
partner 8 µg/mL	0.949	0.924	0.944

fitness, B. subtilis 168 [4], one replicate
Conditions	first compound 0.125 µg/mL	first compound 0.25 µg/mL	first compound 0.5 µg/mL
partner 2 µg/mL	0.898	0.779	0.526
partner 4 µg/mL	0.945	0.867	0.649
partner 8 µg/mL	0.963	0.957	0.577

Conditions	Bliss interaction score
B. subtilis 168 [2]	0.075
S. aureus DSM 20231	0.0538
S. aureus Newman	0.0698
S. pneumoniae D39V [3]	-0.0939

CO[C@@H]1[C@@H](OC(N)=O)[C@@H](O)[C@H](Oc2ccc3c(O)c(NC(=O)c4ccc(O)c(CC=C(C)C)c4)c(=O)oc3c2C)OC1(C)C [Novobiocin] + CN[C@@H]1[C@H](O[C@H]2[C@H](O[C@H]3[C@H](O)[C@@H](O)[C@H](N=C(N)N)[C@@H](O)[C@@H]3N=C(N)N)O[C@@H](C)[C@]2(O)C=O)O[C@@H](CO)[C@H](O)[C@H]1O [Streptomycin]
fitness, B. subtilis 168 [4]
Conditions	first compound 0.0125 µg/mL	first compound 0.025 µg/mL	first compound 0.05 µg/mL
partner 2 µg/mL	0.967	≥ 1	0.938
partner 4 µg/mL	–	0.725	0.873
partner 8 µg/mL	0.0452	0.0379	0.0344

fitness, B. subtilis 168 [4], one replicate
Conditions	first compound 0.125 µg/mL	first compound 0.25 µg/mL	first compound 0.5 µg/mL
partner 2 µg/mL	0.926	0.843	0.592
partner 4 µg/mL	0.928	0.836	0.537
partner 8 µg/mL	0.135	0.044	0.0121

Conditions	Bliss interaction score
B. subtilis 168 [2]	0.133
S. aureus DSM 20231	-0.111
S. aureus Newman	-0.172
S. pneumoniae D39V [3]	0.0562

CO[C@@H]1[C@@H](OC(N)=O)[C@@H](O)[C@H](Oc2ccc3c(O)c(NC(=O)c4ccc(O)c(CC=C(C)C)c4)c(=O)oc3c2C)OC1(C)C [Novobiocin] + COc1cc(Cc2cnc(N)nc2N)cc(OC)c1OC [Trimethoprim]
fitness, B. subtilis 168 [4]
Conditions	first compound 0.0125 µg/mL	first compound 0.025 µg/mL	first compound 0.05 µg/mL	first compound 0.1 µg/mL	first compound 0.2 µg/mL
partner 0.25 µg/mL	–	–	–	–	0.754
partner 0.5 µg/mL	0.566	0.525	0.502	0.492	0.554

B. subtilis 168 [4], one replicate
Conditions	fitness
first compound 0.0125 µg/mL, partner 1 µg/mL	0.471
first compound 0.0125 µg/mL, partner 2 µg/mL	0.386
first compound 0.025 µg/mL, partner 1 µg/mL	0.451
first compound 0.025 µg/mL, partner 2 µg/mL	0.386
first compound 0.05 µg/mL, partner 0.1 µg/mL	0.947
first compound 0.05 µg/mL, partner 0.125 µg/mL	0.759
first compound 0.05 µg/mL, partner 0.2 µg/mL	0.794
first compound 0.05 µg/mL, partner 0.4 µg/mL	0.546
first compound 0.05 µg/mL, partner 1 µg/mL	0.521
first compound 0.05 µg/mL, partner 2 µg/mL	0.354
first compound 0.1 µg/mL, partner 0.1 µg/mL	≥ 1
first compound 0.1 µg/mL, partner 0.125 µg/mL	0.77
first compound 0.1 µg/mL, partner 0.2 µg/mL	0.797
first compound 0.1 µg/mL, partner 0.4 µg/mL	0.52
first compound 0.125 µg/mL, partner 0.125 µg/mL	0.835
first compound 0.125 µg/mL, partner 0.25 µg/mL	0.56
first compound 0.125 µg/mL, partner 0.5 µg/mL	0.479
first compound 0.2 µg/mL, partner 0.1 µg/mL	0.978
first compound 0.2 µg/mL, partner 0.125 µg/mL	0.757
first compound 0.2 µg/mL, partner 0.2 µg/mL	0.826
first compound 0.2 µg/mL, partner 0.4 µg/mL	0.474
first compound 0.25 µg/mL, partner 0.125 µg/mL	0.565
first compound 0.25 µg/mL, partner 0.25 µg/mL	0.459
first compound 0.25 µg/mL, partner 0.5 µg/mL	0.45
first compound 0.5 µg/mL, partner 0.125 µg/mL	0.424
first compound 0.5 µg/mL, partner 0.25 µg/mL	0.376
first compound 0.5 µg/mL, partner 0.5 µg/mL	0.406

Conditions	Bliss interaction score
B. subtilis 168 [2]	0.136
S. aureus DSM 20231	0.134
S. aureus Newman	0.0627
S. pneumoniae D39V [3]	0.0635

CO[C@@H]1[C@@H](OC(N)=O)[C@@H](O)[C@H](Oc2ccc3c(O)c(NC(=O)c4ccc(O)c(CC=C(C)C)c4)c(=O)oc3c2C)OC1(C)C [Novobiocin] + COc1ccc(C[C@H](N)C(=O)N[C@H]2[C@@H](O)[C@H](n3cnc4c(N(C)C)ncnc43)O[C@@H]2CO)cc1 [Puromycin]
fitness, B. subtilis 168 [4]
Conditions	first compound 0.0125 µg/mL	first compound 0.025 µg/mL	first compound 0.05 µg/mL
partner 0.39 µg/mL	0.948	0.948	0.973
partner 0.78 µg/mL	0.954	0.964	0.938
partner 1.56 µg/mL	0.956	0.907	0.971

fitness, B. subtilis 168 [4], one replicate
Conditions	first compound 0.125 µg/mL	first compound 0.25 µg/mL	first compound 0.5 µg/mL
partner 0.39 µg/mL	0.89	0.819	0.554
partner 0.78 µg/mL	0.962	0.953	0.655
partner 1.56 µg/mL	0.905	0.853	0.544

Conditions	Bliss interaction score
B. subtilis 168 [2]	0.0583
S. aureus DSM 20231	-0.0356
S. aureus Newman	-0.0461
S. pneumoniae D39V [3]	0.105
